According to the NIST ThermoML archive (doi:10.1021/acs.jced.9b00078):

Assay: xn = mol fraction of the nth substance listed
Settings: Liquid, Other PVT measurement

CCCCCCCCCCCCCCCC [hexadecane] + O=C=O
mass density [kg/m3]
Settings | 303.2 K | 313.2 K | 333.2 K | 353.2 K | 373.2 K | 393.2 K | 413.2 K | 433.2 K | 453.2 K | 473.2 K
10000 kPa, x2 = 0.2555 | 780.45 | 773.23 | 758.92 | 744.43 | 729.96 | 715.39 | 700.19 | 685.46 | 670.23 | 654.67
10000 kPa, x2 = 0.3703 | – | 778.18 | 759.26 | 746.79 | 731.25 | 715.75 | 698.68 | 681.51 | 664.54 | 647.28
20000 kPa, x2 = 0.2555 | 787.34 | 780.1 | 766.68 | 753 | 739.28 | 725.96 | 712.05 | 698.1 | 684 | 670.22
20000 kPa, x2 = 0.3703 | 793.48 | 785.88 | 771.19 | 756.53 | 742.07 | 727.42 | 712.39 | 697.06 | 681.26 | 665.86
30000 kPa, x2 = 0.2555 | 794.56 | 787.59 | 774.7 | 761.96 | 749.11 | 736.15 | 723.64 | 710.65 | 697.79 | 684.48
30000 kPa, x2 = 0.3703 | 801.32 | 793.73 | 780.08 | 766.24 | 752.26 | 738.82 | 725.13 | 711.36 | 697.06 | 683.13
30000 kPa, x2 = 0.7348 | 839.16 | 828.9 | 807.53 | 785.71 | 763.15 | 741.75 | 718.23 | 696.05 | 671.94 | 647.71
30000 kPa, x2 = 0.8645 | 872.71 | 857.83 | 827.32 | 793.96 | 758.29 | 725.26 | 688.46 | 649.67 | 613.21 | 578.59
40000 kPa, x2 = 0.2555 | 800.47 | 793.9 | 781.61 | 769.42 | 757.25 | 745.02 | 732.84 | 721.13 | 708.66 | 696.75
40000 kPa, x2 = 0.3703 | 807.74 | 800.81 | 787.53 | 774.17 | 761.32 | 748.53 | 735.68 | 723.06 | 709.8 | 697.04
40000 kPa, x2 = 0.7348 | 848.5 | 839.65 | 821.38 | 800.32 | 779.76 | 758.8 | 738 | 717.02 | 695.98 | 675.69
40000 kPa, x2 = 0.8645 | 885.49 | 870.69 | 840.65 | 812.52 | 785.33 | 757.98 | 729.63 | 702.92 | 673.61 | 644.14
50000 kPa, x2 = 0.2555 | 807.2 | 800.32 | 788.15 | 776.26 | 764.83 | 753.11 | 741.57 | 730.38 | 718.53 | 707.53
50000 kPa, x2 = 0.3703 | 814.58 | 807.06 | 794.36 | 782.12 | 769.45 | 756.96 | 744.66 | 732.8 | 720.85 | 708.83
50000 kPa, x2 = 0.7348 | 860.91 | 850.12 | 831.42 | 812.92 | 793.19 | 773.38 | 755.78 | 736.34 | 717.38 | 698.15
50000 kPa, x2 = 0.8645 | 900.22 | 885.44 | 859.09 | 833.73 | 810.58 | 783.06 | 759.09 | 735.07 | 709.83 | 685.57
